For this series the following is noted: for aqueous solubility: pH 6.8.

≈ marks a conversion by molar mass, not a printed value.

For `Cc1cc(NC(=O)c2cc(F)cc(F)c2)sn1`, the intrinsic clearance, human liver microsomes turned out to be 130 mL/min/kg and the intrinsic clearance, rat liver microsomes turned out to be 77.3 mL/min/kg.

The compound `CC(C)c1ccc2occ(CC(=O)O)c2c1` showed an intrinsic clearance, human liver microsomes not above 4.74 mL/min/kg and an intrinsic clearance, rat liver microsomes not above 10.7 mL/min/kg.

For orientation: aqueous solubility means the concentration that dissolves in the medium under given conditions. High values mean much dissolved substance, low ones little dissolved substance. With `O=C(c1ccc(-n2cccn2)nc1)N1CCN(c2ccccc2O)CC1`, the MDR1-MDCK efflux ratio is 0.747; the intrinsic clearance, human liver microsomes stood at 5.81 mL/min/kg; the intrinsic clearance, rat liver microsomes was determined as 127 mL/min/kg; the aqueous solubility turned out to be 42.5 µg/mL (≈ 122 µM).

`Cc1ncsc1-c1nc(CNc2cc(F)cc(F)c2)no1` displayed an intrinsic clearance, human liver microsomes of 65.7 mL/min/kg and an intrinsic clearance, rat liver microsomes of 661 mL/min/kg.

`CCC(CC)NC(=O)c1ccc2ncsc2c1`: the MDR1-MDCK efflux ratio was 0.527; the intrinsic clearance, human liver microsomes worked out at 7.3 mL/min/kg; the intrinsic clearance, rat liver microsomes came to 20.5 mL/min/kg; the aqueous solubility turned out to be 22.2 µg/mL (≈ 89.4 µM).

For the compound `Cc1cc(Nc2cc(N)ncn2)c(=O)n2c1C(=O)NC21CCCCC1`, the MDR1-MDCK efflux ratio was determined as 25.5; the intrinsic clearance, human liver microsomes is not above 4.74 mL/min/kg; the intrinsic clearance, rat liver microsomes came to 24.8 mL/min/kg.

Compound `Cc1ccc(C#N)c(NC(=O)CCc2ccccc2)n1` yielded an intrinsic clearance, human liver microsomes of 11.1 mL/min/kg and an intrinsic clearance, rat liver microsomes of 240 mL/min/kg.

In the case of `Cc1cc(CN2CCN(c3ncccn3)CC2)on1`, the MDR1-MDCK efflux ratio amounted to 0.608; the intrinsic clearance, human liver microsomes was not above 4.74 mL/min/kg; the intrinsic clearance, rat liver microsomes was found to be 91.5 mL/min/kg; the aqueous solubility amounted to 36.7 µg/mL (≈ 141 µM).

In the case of `CCCC(=O)N1CCC(c2cccc(C)n2)CC1`, the MDR1-MDCK efflux ratio stood at 0.574; the intrinsic clearance, human liver microsomes is not above 4.74 mL/min/kg; the intrinsic clearance, rat liver microsomes was 443 mL/min/kg; the aqueous solubility came out at 40.2 µg/mL (≈ 163 µM).

As to `CNC(=O)c1sc2ncccc2c1[C@H]1CC[C@H](CNC(=O)CCc2ccccc2)CC1`, the MDR1-MDCK efflux ratio is 33.7; the intrinsic clearance, human liver microsomes worked out at 206 mL/min/kg; the intrinsic clearance, rat liver microsomes amounted to 1460 mL/min/kg; the aqueous solubility came to 61.7 µg/mL (≈ 142 µM).

In turn, `Cc1ccc(C)c(CN2C(=O)C(=O)N(CC(C)C)C2=O)c1` had an aqueous solubility of 1.75 µg/mL (≈ 6.07 µM).

As for `COc1cc(Br)c2c(=O)[nH]c(C)nc2c1`, the MDR1-MDCK efflux ratio is 0.691; the intrinsic clearance, human liver microsomes is 13.9 mL/min/kg; the intrinsic clearance, rat liver microsomes stood at 148 mL/min/kg.

The compound `Cc1ccc(CN(C)Cc2c(C)noc2C)o1` displayed an intrinsic clearance, human liver microsomes of 27.6 mL/min/kg; an intrinsic clearance, rat liver microsomes of 1270 mL/min/kg; an aqueous solubility of 31.6 µg/mL (≈ 135 µM).

As to `CC(C)NC(=O)N1CC[C@H](NC2=Nc3cc(F)ccc3N(CC(F)F)c3ccc(Cl)cc32)C1`, the MDR1-MDCK efflux ratio was 23.6; the intrinsic clearance, human liver microsomes amounted to 180 mL/min/kg; the intrinsic clearance, rat liver microsomes is 783 mL/min/kg; the aqueous solubility came to 28 µg/mL (≈ 58.3 µM).

For `CC(C)CCN1CCC(CNC(=O)C2CC=CC2)CC1`, the MDR1-MDCK efflux ratio was 3.77; the intrinsic clearance, human liver microsomes amounted to 12.5 mL/min/kg; the intrinsic clearance, rat liver microsomes turned out to be 141 mL/min/kg.

`CC(C)CCN1CCn2c1nc1c2c(=O)n(C)c(=O)n1C`: the intrinsic clearance, human liver microsomes stood at 26.3 mL/min/kg; the intrinsic clearance, rat liver microsomes came to 99.7 mL/min/kg; the aqueous solubility came out at 46.6 µg/mL (≈ 160 µM).

As to `CC(C)(C)c1cc(C(=O)CSc2nnnn2-c2ccccc2)cc(C(C)(C)C)c1O`, the intrinsic clearance, human liver microsomes was determined as 26.1 mL/min/kg and the intrinsic clearance, rat liver microsomes turned out to be 55.8 mL/min/kg.

For `O=C(c1ccccc1)N1CCN(C(=O)c2ccc(-c3ccccc3Cl)o2)CC1`, the MDR1-MDCK efflux ratio turned out to be 0.683; the intrinsic clearance, human liver microsomes was 126 mL/min/kg; the intrinsic clearance, rat liver microsomes is 445 mL/min/kg; the aqueous solubility stood at 34.9 µg/mL (≈ 88.4 µM).

As to `C1CCC(OCc2noc(C3CC3)n2)CC1`, the MDR1-MDCK efflux ratio came to 0.884; the intrinsic clearance, human liver microsomes worked out at 34 mL/min/kg; the intrinsic clearance, rat liver microsomes came out at 372 mL/min/kg; the aqueous solubility came out at 16.2 µg/mL (≈ 72.9 µM).

As to `CC(C)=CCOc1cccc(C(=O)NN2CCOCC2)c1`, the MDR1-MDCK efflux ratio turned out to be 1.29; the intrinsic clearance, human liver microsomes was not above 4.74 mL/min/kg; the intrinsic clearance, rat liver microsomes was found to be 589 mL/min/kg.

Consider `CCC1(O)CN(c2ncccc2C#N)C1`, for which the MDR1-MDCK efflux ratio amounted to 0.523; the intrinsic clearance, human liver microsomes was not above 4.74 mL/min/kg; the intrinsic clearance, rat liver microsomes amounted to 25 mL/min/kg; the aqueous solubility amounted to 22.7 µg/mL (≈ 112 µM).

Turning to `COc1nccnc1N1CCC(C(=O)Nc2cccc(F)c2)CC1`, the MDR1-MDCK efflux ratio came to 0.629; the intrinsic clearance, human liver microsomes is 182 mL/min/kg; the intrinsic clearance, rat liver microsomes worked out at 298 mL/min/kg.

For `CCc1[nH]nc(NC2CCN(C(C)C)CC2)c1C`, the MDR1-MDCK efflux ratio came out at 13.7; the intrinsic clearance, human liver microsomes is not above 4.74 mL/min/kg; the intrinsic clearance, rat liver microsomes is 163 mL/min/kg.

With `CSC[C@H]1CN(Cc2c[nH]c3c(N)ncnc23)C[C@@H]1O`, the intrinsic clearance, human liver microsomes is not above 4.74 mL/min/kg and the intrinsic clearance, rat liver microsomes was not above 10.7 mL/min/kg.

Consider `FC(F)(F)c1nccc(NCCSc2nc3ccccc3o2)n1`, for which the MDR1-MDCK efflux ratio is 0.317; the intrinsic clearance, human liver microsomes amounted to 256 mL/min/kg; the intrinsic clearance, rat liver microsomes came to 747 mL/min/kg; the aqueous solubility came out at 44.9 µg/mL (≈ 132 µM).

In the case of `Clc1snnc1CN1CCCN(c2nc3ccccc3[nH]2)CC1`, the MDR1-MDCK efflux ratio turned out to be 13.1; the intrinsic clearance, human liver microsomes stood at 105 mL/min/kg; the intrinsic clearance, rat liver microsomes amounted to 1440 mL/min/kg; the aqueous solubility was found to be 28.2 µg/mL (≈ 80.7 µM).

`Cc1cc(Nc2nnc(C)s2)cc(C2CN(C(=O)c3c(C(C)C)noc3C)CCO2)n1` (centres undefined): the MDR1-MDCK efflux ratio amounted to 54.3; the intrinsic clearance, human liver microsomes came to 22.5 mL/min/kg; the intrinsic clearance, rat liver microsomes was 151 mL/min/kg.

As for `CN(Cc1ccc(Br)o1)C(=O)CN1CCCC1=O`, the MDR1-MDCK efflux ratio was determined as 2.67; the intrinsic clearance, human liver microsomes was not above 4.74 mL/min/kg; the intrinsic clearance, rat liver microsomes was found to be 16.7 mL/min/kg; the aqueous solubility stood at 70 µg/mL (≈ 222 µM).

Regarding `O=C(c1ccc2oc(CCCc3ccccc3)nc2c1)N1CCC(Oc2cccnc2)CC1`, the MDR1-MDCK efflux ratio amounted to 1.48; the intrinsic clearance, human liver microsomes is 679 mL/min/kg; the intrinsic clearance, rat liver microsomes was 2090 mL/min/kg; the aqueous solubility came to 24.3 µg/mL (≈ 55 µM).

Consider `CCc1ccccc1S(=O)(=O)NCCc1cn[nH]c1`, for which the MDR1-MDCK efflux ratio stood at 2.65; the intrinsic clearance, human liver microsomes turned out to be 34.8 mL/min/kg; the intrinsic clearance, rat liver microsomes stood at 533 mL/min/kg.

Consider `CCC(=O)NCC[C@@H]1CCc2ccc3c(c21)CCO3`, for which the MDR1-MDCK efflux ratio was found to be 0.867; the intrinsic clearance, human liver microsomes worked out at 26.4 mL/min/kg; the intrinsic clearance, rat liver microsomes came to 299 mL/min/kg.

With `COc1ccc(-c2ccc(CN(CCN3CCOCC3)Cc3cccnc3)cc2)cc1`, the MDR1-MDCK efflux ratio amounted to 1.48; the intrinsic clearance, human liver microsomes is 447 mL/min/kg; the intrinsic clearance, rat liver microsomes came to 1580 mL/min/kg; the aqueous solubility is 63.2 µg/mL (≈ 151 µM).

With `CC1(C)OCCn2c1nc1c(N3CCOCC3)nc(-c3cnc(N)nc3)nc12`, the MDR1-MDCK efflux ratio came to 1.31; the intrinsic clearance, human liver microsomes was 6.14 mL/min/kg; the intrinsic clearance, rat liver microsomes was 26 mL/min/kg; the aqueous solubility stood at 6.44 µg/mL (≈ 16.8 µM).

In the case of `NCc1nnc(CCc2ccccc2)o1`, the intrinsic clearance, human liver microsomes was not above 4.74 mL/min/kg and the intrinsic clearance, rat liver microsomes is not above 10.7 mL/min/kg.

Turning to `CC(=O)c1cnc2ccc(-c3cc(Cl)c(O)c(Cl)c3)nc2c1N[C@H]1CC[C@H](CN(C)C)CC1`, the MDR1-MDCK efflux ratio is 21.9 and the aqueous solubility was 0.3 µg/mL (≈ 0.615 µM).

Take `CCOc1ccc2nc3c(cc2c1)CN(CCOC)C(=O)O3`: the intrinsic clearance, human liver microsomes turned out to be 12 mL/min/kg and the intrinsic clearance, rat liver microsomes came out at 215 mL/min/kg.

`COc1ccc(C(=O)N2CCCC2)cc1NC(=O)c1cc(F)c(F)c(F)c1F` gave an intrinsic clearance, human liver microsomes not above 4.74 mL/min/kg; an intrinsic clearance, rat liver microsomes of 90.1 mL/min/kg; an aqueous solubility of 43.9 µg/mL (≈ 111 µM).

As to `Cc1nc(NCc2scnc2C)n(C)n1`, the MDR1-MDCK efflux ratio amounted to 4.21; the intrinsic clearance, human liver microsomes was not above 4.74 mL/min/kg; the intrinsic clearance, rat liver microsomes is not above 10.7 mL/min/kg; the aqueous solubility was 27.7 µg/mL (≈ 124 µM).

The compound `CC(C)Oc1ccc(C(=O)Nc2cccc(-c3nc4cnccc4o3)c2)cc1` registered an aqueous solubility of 0.54 µg/mL (≈ 1.45 µM).

On to `N[C@@H]1CCCN(c2c(/C=C3\SC(=O)NC3=O)cccc2-c2ccccc2)C1`, for which the MDR1-MDCK efflux ratio turned out to be 28.9; the intrinsic clearance, human liver microsomes was 9.01 mL/min/kg; the intrinsic clearance, rat liver microsomes came to 25.9 mL/min/kg.

For `CCC(C)(C)NC(=O)C1(Cc2ccc(-c3cc(F)ccc3OC)cc2)CCOCC1`, the MDR1-MDCK efflux ratio was 1.62; the intrinsic clearance, human liver microsomes is 700 mL/min/kg; the intrinsic clearance, rat liver microsomes worked out at 1020 mL/min/kg; the aqueous solubility was 12 µg/mL (≈ 28.9 µM).

As for `O=c1c2cccnc2ncn1[C@H]1CCN(Cc2ccccc2)C1`, the MDR1-MDCK efflux ratio came out at 0.776; the intrinsic clearance, human liver microsomes was not above 4.74 mL/min/kg; the intrinsic clearance, rat liver microsomes turned out to be 162 mL/min/kg.

As to `N#Cc1ccc(COc2ccccc2C#N)cc1`, the aqueous solubility was found to be 1.71 µg/mL (≈ 7.3 µM).

In the case of `C[C@@]1(c2ncncc2F)NC(=O)c2cc(-c3cn[nH]c3)ccc21`, the MDR1-MDCK efflux ratio came to 21.8; the intrinsic clearance, human liver microsomes was not above 4.74 mL/min/kg; the intrinsic clearance, rat liver microsomes was determined as 34.9 mL/min/kg; the aqueous solubility came out at 37.5 µg/mL (≈ 121 µM).

Compound `CNc1cc(CC2CCNCC2)ncn1` had an aqueous solubility of 30.6 µg/mL (≈ 148 µM).

For `CC(C)n1cnnc1SCOCc1ccccc1`, the MDR1-MDCK efflux ratio is 0.711; the intrinsic clearance, human liver microsomes was not above 4.74 mL/min/kg; the intrinsic clearance, rat liver microsomes came out at 219 mL/min/kg.

As to `COc1ccc(-c2cnn3c(N)c(-c4ccccc4)cnc23)cc1OC`, the MDR1-MDCK efflux ratio came to 0.459 and the aqueous solubility amounted to 0.19 µg/mL (≈ 0.549 µM).

The compound `COc1ccc(F)cc1-c1ccc(-c2nnco2)cc1` gave an intrinsic clearance, human liver microsomes of 23.8 mL/min/kg and an intrinsic clearance, rat liver microsomes of 333 mL/min/kg.

The compound `CC1(COc2ccc3c(c2)ncn3-c2ccc3cccc(N4CCC(N)CC4)c3n2)COC1` came in with an intrinsic clearance, human liver microsomes of 57.1 mL/min/kg; an intrinsic clearance, rat liver microsomes of 196 mL/min/kg; an aqueous solubility of 32.8 µg/mL (≈ 74 µM).

`Cc1n[nH]c(C2CCN(C(=O)NC3CCN(c4ccc(F)cc4)CC3)CC2)n1`: the MDR1-MDCK efflux ratio was found to be 22.9; the intrinsic clearance, human liver microsomes was not above 4.74 mL/min/kg; the intrinsic clearance, rat liver microsomes came out at 38.3 mL/min/kg.

For the origin of these results see the Biogen ADME set (Fang et al. 2023).
